Values after ≈ are worked out from the molar mass of the structure shown. Read-outs that look alike come from different tables or passages of the source.
Key:
Format in all cases: cell-based
[1] = system: methicillin-resistant Staphylococus epidermidis (MRSE); experiment: MIC, NCCLS microdilution broth procedure, MRSE; conditions: for MIC: Staphylococcus epidermidis, read-out: minimum inhibitory concentration (MIC)
Method: (§1) The following table identifies specific species of compounds according to the present invention and information concerning their associated antibacterial activity. The antibacterial activity of three compounds in accordance with the present invention (N-biphenyl-methyl-norvacomycin (A); N-chloro-biphenyl-methyl-norvacomycin (B) and desmethyl-vancomycin-gly-p-n-octyloxybenzyl (C)) were tested and compared to unmodified vancomycin (Van) and norvancoycin (Nor). MIC (minimum inhibitory concentration) was measured according to NCCLS standards using the microdilution broth procedure. Serial dilutions of the compounds were placed in a 96-well microplate containing Mueller-Hinton medium. Based on absorbance of 600 nm, diluted overnight cultures were placed in the wells at a final concentration of 5×10^5 cfu/mL. The plate was then placed in a culture box at 35° C. The next day, MIC was determined by visual observation of the plates.
(§2) The glycopeptides were tested against a variety of strains well known in the art for such testing, including methicillin-susceptible Staphylococus aureus (MSSA), methicillin-susceptible Staphylococus epidermidis (MSSE), methicillin-resistant Staphylococus aureus (MRSA), methicillin-resistant Staphylococus epidermidis (MRSE), and glycopeptide-intermediate Staphylococus aureus (GISA). Results are shown in the Table 1 as minimum inhibitory concentration (MIC) in units of μg/ml: […]

[2] = system: glycopeptide-intermediate Staphylococus aureus (GISA) (V); experiment: MIC, NCCLS microdilution broth procedure, GISA (V)
Method: as §1, §2

[3] = system: methicillin-resistant Staphylococus aureus (MRSA); experiment: MIC, NCCLS microdilution broth procedure, MRSA; conditions: for MIC: Staphylococcus aureus, MRSA
Method: as §1, §2

[4] = system: glycopeptide-intermediate Staphylococus aureus (GISA) (D); experiment: MIC, NCCLS microdilution broth procedure, GISA (D)
Method: as §1, §2

[5] = system: methicillin-susceptible Staphylococus epidermidis (MSSE); experiment: MIC, NCCLS microdilution broth procedure, MSSE; conditions: for MIC: read-out: minimum inhibitory concentration (MIC)
Method: as §1, §2

[6] = system: methicillin-susceptible Staphylococus aureus (MSSA); experiment: MIC, NCCLS microdilution broth procedure, MSSA; conditions: for MIC: Staphylococcus aureus, read-out: minimum inhibitory concentration (MIC)
Method: as §1, §2

[7] = GISA (V) strain # 68, read-out: minimum inhibitory concentration (MIC)
[8] = GISA (V) strain # 143, read-out: minimum inhibitory concentration (MIC)
[9] = MRSA strain # 134, read-out: minimum inhibitory concentration (MIC)
[10] = MRSA strain # 143, read-out: minimum inhibitory concentration (MIC)
[11] = GISA (D) strain # 68, read-out: minimum inhibitory concentration (MIC)
[12] = read-out: minimum inhibitory concentration (MIC)

SMILES	minimum inhibitory concentration (MIC) ([1]; MRSE strain # 25) [µg/mL]	minimum inhibitory concentration (MIC) ([1]; MRSE strain # 26) [µg/mL]	MIC ([1]; MRSE strain # 24) [µg/mL]	MIC [2, 7] [µg/mL]	MIC [2, 8] [µg/mL]	MIC [3, 9] [µg/mL]	MIC [3, 10] [µg/mL]	MIC [4, 11] [µg/mL]	minimum inhibitory concentration (MIC) ([4]; GISA (D) strain # 143) [µg/mL]	MIC ([5]; MSSE strain # 3) [µg/mL]	minimum inhibitory concentration (MIC) ([5]; MSSE strain # 10) [µg/mL]	minimum inhibitory concentration (MIC) ([6]; MSSA strain # 83) [µg/mL]	MIC ([6]; MSSA strain # 68) [µg/mL]	MIC ([1]; MRSE) [µg/mL]	MIC [5] [µg/mL]	MIC ([6]; MSSA) [µg/mL]	minimum inhibitory concentration (MIC) ([2]; GISA (V) strain # 143) [µg/mL]	minimum inhibitory concentration (MIC) ([3]; MRSA strain # 143) [µg/mL]	further results
CC(C)C[C@H](N)C(=O)N[C@H]1C(=O)N[C@@H](CC(N)=O)C(=O)N[C@H]2C(=O)N[C@H]3C(=O)NC(C(=O)N[C@H](C(=O)O)c4cc(O)cc(O)c4-c4cc3ccc4O)[C@H](O)c3ccc(c(Cl)c3)Oc3cc2cc(c3OC2O[C@H](CO)[C@@H](O)[C@H](O)C2O[C@H]2C[C@](C)(NCc3ccc(-c4ccccc4)cc3)[C@H](O)[C@H](C)O2)Oc2ccc(cc2Cl)[C@H]1O (some centres unmarked) [Compound A, N-Biphenyl-Methyl-Desmethyl-vancomycin]	4 (≈ 2.5 µM)	4 (≈ 2.5 µM)	4 (≈ 2.5 µM)	8 (≈ 5 µM)	4 (≈ 2.5 µM)	2 (≈ 1.25 µM)	4 (≈ 2.5 µM)	8 (≈ 5 µM)	8 (≈ 5 µM)	4 (≈ 2.5 µM)	4 (≈ 2.5 µM)	2 (≈ 1.25 µM)	2 (≈ 1.25 µM)	–	–	–	–	–	–
CC(C)C[C@H](N)C(=O)N[C@H]1C(=O)N[C@@H](CC(N)=O)C(=O)N[C@H]2C(=O)N[C@H]3C(=O)NC(C(=O)N[C@H](C(=O)O)c4cc(O)cc(O)c4-c4cc3ccc4O)[C@H](O)c3ccc(c(Cl)c3)Oc3cc2cc(c3OC2O[C@H](CO)[C@@H](O)[C@H](O)C2O[C@H]2C[C@](C)(NCc3ccc(-c4ccc(Cl)cc4)cc3)[C@H](O)[C@H](C)O2)Oc2ccc(cc2Cl)[C@H]1O (some centres unmarked) [Compound B, N-Chloro-Biphenyl-Methyl-Desmethyl-vancomycin]	0.5 (≈ 0.306 µM)	0.5 (≈ 0.306 µM)	0.5 (≈ 0.306 µM)	1 (≈ 0.611 µM)	1 (≈ 0.611 µM)	0.5 (≈ 0.306 µM)	0.5 (≈ 0.306 µM)	1 (≈ 0.611 µM)	1 (≈ 0.611 µM)	0.5 (≈ 0.306 µM)	0.5 (≈ 0.306 µM)	0.5 (≈ 0.306 µM)	0.5 (≈ 0.306 µM)	–	–	–	–	–	–
CCCCCCCCOc1ccc(CNCC(=O)N[C@@]2(C)C[C@H](OC3C(Oc4c5cc6cc4Oc4ccc(cc4Cl)[C@@H](O)[C@@H](NC(=O)[C@@H](N)CC(C)C)C(=O)N[C@@H](CC(N)=O)C(=O)N[C@H]6C(=O)N[C@H]4C(=O)NC(C(=O)N[C@H](C(=O)O)c6cc(O)cc(O)c6-c6cc4ccc6O)[C@H](O)c4ccc(c(Cl)c4)O5)O[C@H](CO)[C@@H](O)[C@@H]3O)O[C@@H](C)[C@H]2O)cc1 (some centres unmarked) [Compound C, Desmethyl-vancomycin-Gly-p-n-Octyloxybenzyl]	2 (≈ 1.17 µM)	2 (≈ 1.17 µM)	–	–	–	–	–	–	4 (≈ 2.34 µM)	–	1 (≈ 0.585 µM)	2 (≈ 1.17 µM)	–	2 (≈ 1.17 µM)	1 (≈ 0.585 µM)	2 (≈ 1.17 µM)	–	–	MIC ([2]; read-out: minimum inhibitory concentration (MIC), GISA (V) strain # 68): 4 µg/mL (≈ 2.34 µM); MIC ([2]; read-out: minimum inhibitory concentration (MIC), GISA (V) strain # 143): 2 µg/mL (≈ 1.17 µM); MIC ([3]; read-out: minimum inhibitory concentration (MIC), MRSA strain # 134): 2 µg/mL (≈ 1.17 µM); MIC ([3]; read-out: minimum inhibitory concentration (MIC), MRSA strain # 143): 1 µg/mL (≈ 0.585 µM); MIC [4, 12]: 4 µg/mL (≈ 2.34 µM)
CC(C)C[C@@H](N)C(=O)N[C@H]1C(=O)N[C@@H](CC(N)=O)C(=O)N[C@H]2C(=O)N[C@H]3C(=O)N[C@H](C(=O)N[C@H](C(=O)O)c4cc(O)cc(O)c4-c4cc3ccc4O)[C@H](O)c3ccc(c(Cl)c3)Oc3cc2cc(c3O[C@@H]2O[C@H](CO)[C@@H](O)[C@H](O)[C@H]2O[C@H]2C[C@](C)(N)[C@H](O)[C@H](C)O2)Oc2ccc(cc2Cl)[C@H]1O [Nor, norvancoycin, reference compound]	2 (≈ 1.39 µM)	2 (≈ 1.39 µM)	–	–	–	–	–	–	4 (≈ 2.79 µM)	–	2 (≈ 1.39 µM)	2 (≈ 1.39 µM)	–	–	–	–	8 (≈ 5.57 µM)	2 (≈ 1.39 µM)	minimum inhibitory concentration (MIC) ([1]; MRSE strain # 24): 2 µg/mL (≈ 1.39 µM); minimum inhibitory concentration (MIC) ([2]; GISA (V) strain # 68): 4 µg/mL (≈ 2.79 µM); minimum inhibitory concentration (MIC) ([3]; MRSA strain # 134): 2 µg/mL (≈ 1.39 µM); minimum inhibitory concentration (MIC) ([4]; GISA (D) strain # 68): 4 µg/mL (≈ 2.79 µM); minimum inhibitory concentration (MIC) ([5]; MSSE strain # 3): 2 µg/mL (≈ 1.39 µM); minimum inhibitory concentration (MIC) ([6]; MSSA strain # 68): 2 µg/mL (≈ 1.39 µM)
CN[C@H](CC(C)C)C(=O)N[C@H]1C(=O)N[C@@H](CC(N)=O)C(=O)N[C@H]2C(=O)N[C@H]3C(=O)N[C@H](C(=O)N[C@H](C(=O)O)c4cc(O)cc(O)c4-c4cc3ccc4O)[C@H](O)c3ccc(c(Cl)c3)Oc3cc2cc(c3O[C@@H]2O[C@H](CO)[C@@H](O)[C@H](O)[C@H]2O[C@H]2C[C@](C)(N)[C@H](O)[C@H](C)O2)Oc2ccc(cc2Cl)[C@H]1O [Van, vancomycin]	2 (≈ 1.38 µM)	2 (≈ 1.38 µM)	–	–	–	–	–	–	–	–	2 (≈ 1.38 µM)	2 (≈ 1.38 µM)	–	2 (≈ 1.38 µM)	2 (≈ 1.38 µM)	2 (≈ 1.38 µM)	8 (≈ 5.52 µM)	2 (≈ 1.38 µM)	MIC [2, 12]: 8 µg/mL (≈ 5.52 µM); MIC [3, 12]: 2 µg/mL (≈ 1.38 µM); MIC ([4]; read-out: minimum inhibitory concentration (MIC), GISA (D) strain # 68): 8 µg/mL (≈ 5.52 µM); MIC ([4]; read-out: minimum inhibitory concentration (MIC), GISA (D) strain # 143): 4 µg/mL (≈ 2.76 µM)
